Experimental data from paper PMC9599520, “The Membrane Activity of the Amphibian Temporin B Peptide Analog TB_KKG6K Sheds Light on the Mechanism That Kills Candida albicans” (mSphere, 2022).
Several values for one entry are separate records, joined by “and”; a condition that tells them apart may be missing. Equal entries are not always repeated. Where no end group is shown, it is not given here.

What was measured:
[1] = Vesicle leakage assay, PG; type: biochemical; details: for relative change in leakage compared to PC-LUVs: P ≤ 0.05; for % Leakage: PG-LUVs, 50 μM lipid, ANTS-DPX, HEPES pH 7.4, 30 min, 37°C, 1% Triton X-100 = 100%, mean ± SD, 2 experiments in duplicates
[2] = Vesicle leakage assay, PC-ergosterol; type: biochemical; details: for relative change in leakage compared to PC-LUVs: P ≤ 0.05; for % Leakage: PC-ergosterol-LUVs, 50 μM lipid, ANTS-DPX, HEPES pH 7.4, 30 min, 37°C, 1% Triton X-100 = 100%, mean ± SD, 2 experiments in duplicates
[3] = cited from earlier work
[4] = system: C. albicans cell membrane; experiment: Membrane depolarization assay with DiSC3(5) dye; type: cell-based, Candida albicans
[5] = Vesicle leakage assay, PC-CL; type: biochemical; details: for relative change in leakage compared to PC-LUVs: P ≤ 0.05; for % Leakage: PC-CL-LUVs, 50 μM lipid, ANTS-DPX, HEPES pH 7.4, 30 min, 37°C, 1% Triton X-100 = 100%, mean ± SD, 2 experiments in duplicates
[6] = Vesicle leakage assay, PC-PS; type: biochemical; details: for % Leakage: PC-PS-LUVs, 50 μM lipid, ANTS-DPX, HEPES pH 7.4, 30 min, 37°C, 1% Triton X-100 = 100%, mean ± SD, 2 experiments in duplicates
[7] = Vesicle leakage assay, PC-PE-ergosterol; type: biochemical; details: for relative change in leakage compared to PC-LUVs: P ≤ 0.05; for % Leakage: PC-PE-ergosterol-LUVs, 50 μM lipid, ANTS-DPX, HEPES pH 7.4, 30 min, 37°C, 1% Triton X-100 = 100%, mean ± SD, 2 experiments in duplicates
[8] = Vesicle leakage assay, PC-sphingomyelin; type: biochemical; details: for relative change in leakage compared to PC-LUVs: P ≤ 0.05; for % Leakage: PC-sphingomyelin-LUVs, 50 μM lipid, ANTS-DPX, HEPES pH 7.4, 30 min, 37°C, 1% Triton X-100 = 100%, mean ± SD, 2 experiments in duplicates
[9] = Vesicle leakage assay, PG-PE-CL; type: biochemical; details: PG-PE-CL-LUVs, 50 μM lipid, ANTS-DPX, HEPES pH 7.4, 30 min, 37°C, 1% Triton X-100 = 100%, mean ± SD, 2 experiments in duplicates
[10] = Vesicle leakage assay, PC; type: biochemical; details: PC-LUVs, 50 μM lipid, ANTS-DPX, HEPES pH 7.4, 30 min, 37°C, 1% Triton X-100 = 100%, mean ± SD, 2 experiments in duplicates
[11] = Vesicle leakage assay, PC-PE; type: biochemical; details: for relative change in leakage compared to PC-LUVs: P ≤ 0.05; for % Leakage: PC-PE-LUVs, 50 μM lipid, ANTS-DPX, HEPES pH 7.4, 30 min, 37°C, 1% Triton X-100 = 100%, mean ± SD, 2 experiments in duplicates
[12] = system: mammalian cells; primary human skin cells and three-dimensional skin epidermal models; details: cited from earlier work
[13] = Vesicle leakage assay, PC-ceramide; type: biochemical; details: for % Leakage: PC-ceramide-LUVs, 50 μM lipid, ANTS-DPX, HEPES pH 7.4, 30 min, 37°C, 1% Triton X-100 = 100%, mean ± SD, 2 experiments in duplicates
[14] = Vesicle leakage assay, PC-PI; type: biochemical; details: for relative change in leakage compared to PC-LUVs: P ≤ 0.05; for % Leakage: PC-PI-LUVs, 50 μM lipid, ANTS-DPX, HEPES pH 7.4, 30 min, 37°C, 1% Triton X-100 = 100%, mean ± SD, 2 experiments in duplicates
[15] = Vesicle leakage assay, PC-PS-ergosterol; type: biochemical; details: for relative change in leakage compared to PC-LUVs: P ≤ 0.05; for % Leakage: PC-PS-ergosterol-LUVs, 50 μM lipid, ANTS-DPX, HEPES pH 7.4, 30 min, 37°C, 1% Triton X-100 = 100%, mean ± SD, 2 experiments in duplicates
C. albicans cells = experiment: Ultrastructural analysis by electron microscopy of cryo-fixed cells; details: 30 μM, 60 min, 30°C

KKLLPIVKNLLKSLL-NH2 (C-terminus assumed) [TB_KKG6K]
relative change in leakage compared to PC-LUVs ([1]; 4 μM peptide): +30% | relative change in leakage compared to PC-LUVs ([1]; 8 μM peptide): +20% | % Leakage ([1]; 2 μM peptide (lipid:peptide 25:1)): 56% ± 4% and 56.0 ± 4.0% | % Leakage ([1]; 4 μM peptide (12:1)): 57.7 ± 3.9% | % Leakage ([1]; 8 μM peptide (6:1)): 61% ± 4% and 61.1 ± 4.1% | relative change in leakage compared to PC-LUVs ([2]; 2 μM peptide): −71% | relative change in leakage compared to PC-LUVs ([2]; 4 μM peptide): −68% | relative change in leakage compared to PC-LUVs ([2]; 8 μM peptide): −66% | % Leakage ([2]; 2 μM peptide (25:1)): 9.8 ± 1.5% | % Leakage ([2]; 4 μM peptide (12:1)): 13.0 ± 0.6% | % Leakage ([2]; 8 μM peptide (6:1)): 16.9 ± 2.0% | hydrophobicity (hydrophobic amino acids) [3]: 53% | positive net charge ([3]; pH 7): +3.9 | time to maximum DiSC3(5) fluorescence intensity ([4]; 1 μM peptide): 15 min | time to maximum DiSC3(5) fluorescence intensity ([4]; 2 μM peptide): 25 min | membrane depolarization, DiSC3(5) fluorescence intensity ([4]; 1 × 10^6 cells/mL, 30°C, 60 min, TB analog 0.5, 1, 2 μM, Triton X-100 1% (wt/vol), PCγ^C-terminal 32 μM): induced membrane depolarization in a concentration- and time-dependent manner | relative change in leakage compared to PC-LUVs ([5]; 2 μM peptide): −93% | relative change in leakage compared to PC-LUVs ([5]; 4 μM peptide): −75% | relative change in leakage compared to PC-LUVs ([5]; 8 μM peptide): +20% | % Leakage ([5]; 2 μM peptide (25:1)): 2.2 ± 0.8% | % Leakage ([5]; 4 μM peptide (12:1)): 9.9 ± 0.7% | % Leakage ([5]; 8 μM peptide (6:1)): 59.0 ± 5.8% | relative change in leakage compared to PC-LUVs ([6]; 2 μM peptide, P ≤ 0.05): −33% | % Leakage ([6]; 2 μM peptide (25:1)): 22.6 ± 3.3% | % Leakage ([6]; 4 μM peptide (12:1)): 38.1 ± 10.5% | % Leakage ([6]; 8 μM peptide (6:1)): 47.4 ± 15.1% | relative change in leakage compared to PC-LUVs ([7]; 2 μM peptide): −56% | relative change in leakage compared to PC-LUVs ([7]; 4 μM peptide): −58% | relative change in leakage compared to PC-LUVs ([7]; 8 μM peptide): −68% | % Leakage ([7]; 2 μM peptide (25:1)): 14.8 ± 0.8% | % Leakage ([7]; 4 μM peptide (12:1)): 17.1 ± 6.0% | % Leakage ([7]; 8 μM peptide (6:1)): 15.8 ± 1.3% | relative change in leakage compared to PC-LUVs ([8]; 2 μM peptide): −44% | relative change in leakage compared to PC-LUVs ([8]; 4 μM peptide): −34% | relative change in leakage compared to PC-LUVs ([8]; 8 μM peptide): −31% | % Leakage ([8]; 2 μM peptide (25:1)): 18.8 ± 3.1% | % Leakage ([8]; 4 μM peptide (12:1)): 26.5 ± 1.0% | % Leakage ([8]; 8 μM peptide (6:1)): 33.9 ± 2.0% | % Leakage ([9]; 2 μM peptide (25:1)): 5.3 ± 1.3% | % Leakage ([9]; 4 μM peptide (12:1)): 40.2 ± 0.9% | % Leakage ([9]; 8 μM peptide (6:1)): 61% ± 3% and 61.5 ± 2.7% | % Leakage ([10]; 2 μM peptide (25:1)): 33.8 ± 3.0% | % Leakage ([10]; 4 μM peptide (12:1)): 40.6 ± 3.2% | % Leakage ([10]; 8 μM peptide (6:1)): 49.2 ± 4.5% | relative change in leakage compared to PC-LUVs ([11]; 2 μM peptide): −32% | relative change in leakage compared to PC-LUVs ([11]; 4 μM peptide): −22% | relative change in leakage compared to PC-LUVs ([11]; 8 μM peptide): −19% | % Leakage ([11]; 2 μM peptide (25:1)): 22.8 ± 1.3% | % Leakage ([11]; 4 μM peptide (12:1)): 31.5 ± 2.1% | % Leakage ([11]; 8 μM peptide (6:1)): 40.0 ± 3.1% | hemolysis and cytotoxicity to mammalian cells in vitro [12]: neither hemolytic nor cytotoxic | tolerance by primary human skin cells and three-dimensional skin epidermal models in vitro [12]: well tolerated | relative change in leakage compared to PC-LUVs ([13]; 2 μM peptide, P ≤ 0.05): −47% | % Leakage ([13]; 2 μM peptide (25:1)): 17.9 ± 1.8% | % Leakage ([13]; 4 μM peptide (12:1)): 39.9 ± 2.4% | % Leakage ([13]; 8 μM peptide (6:1)): 44.8 ± 1.9% | relative change in leakage compared to PC-LUVs ([14]; 4 μM peptide): +29% | relative change in leakage compared to PC-LUVs ([14]; 8 μM peptide): +15% | % Leakage ([14]; 2 μM peptide (25:1)): 37.7 ± 3.9% | % Leakage ([14]; 4 μM peptide (12:1)): 52.5 ± 2.4% | % Leakage ([14]; 8 μM peptide (6:1)): 56.5 ± 2.9% | relative change in leakage compared to PC-LUVs ([15]; 2 μM peptide): −36% | relative change in leakage compared to PC-LUVs ([15]; 4 μM peptide): −26% | % Leakage ([15]; 2 μM peptide (25:1)): 21.8 ± 3.5% | % Leakage ([15]; 4 μM peptide (12:1)): 30.1 ± 4.6% | % Leakage ([15]; 8 μM peptide (6:1)): 46.3 ± 4.2% | cell lysis (C. albicans cells): indications of cell lysis were not observed | ultrastructural damage (C. albicans cells): severe ultrastructural damage to the vast majority of cells
